According to publication PMC8026785, “The pharmacokinetics of [^18F]UCB-H revisited in the healthy non-human primate brain” (EJNMMI Research, 2021):
Where “and” joins values, the source holds several entries; their conditions need not be identical. Equal values may be shown once.

Target: T1, SV2A (Macaca fascicularis, UniProt Q4R4X3)
T1 construct: The current study evaluates [^18F]UCB-H pharmacokinetics in healthy NHPs; from tissue; host or cells: brain of living healthy cynomolgus monkeys (in vivo PET)
Assay: Brain PET kinetic modelling (1TCM, 2TCM, 2TCM-c, Logan), test-retest
Assay type: in vivo, cynomolgus monkeys (Macaca fascicularis)
Protocol: All four non-human primates (NHP) underwent a 2-h (2 h) test and retest PET scan; two NHP underwent an additional 4-h (4 h) retest PET scan. Three NHP underwent one 4-h (4 h) displacement PET scan. Arterial blood sampling was performed during test and retest scans with PET imaging spaced by at least 3 weeks between each scan. To this end, the femoral artery opposite to the saphenous vein used for radioligand injection was cannulated. For the 2-h (2 h) scans, we collected in total 28 blood samples of 1 mL: 16 samples during the first 5 min followed by […] every 5 min and […] every 10 min. For the 4 h scans, we collected an additional 6 samples every 20 min during the last two hours (34 samples in total). Larger samples (2 – 3 mL) were collected at 5, 15, 30, 60, 90, 120 min (2 h) and at 180, 240 min (4 h) for metabolite analysis. Displacement of [^18F]UCB-H was done by intravenous (IV) administration 90 min after [^18F]UCB-H injection of a bolus of 30 mg/kg LEV, or of 80 µg/kg (≈250 nmol/kg) or 5 mg/kg (≈15 µmol/kg) of cold [^19F]-UCB-H. Full experimental design of all NHP is outlined in Additional file 1: Table 1.
PET imaging was performed on the microPET FOCUS220 (Siemens) under standard anesthesia and monitoring procedures. Data acquisition started with the IV bolus injection of [^18F]UCB-H (32.9 ± 1.0 MBq/kg, 0.35 ± 0.07 µg/kg). Dynamic PET images were reconstructed using standard OSEM-2D algorithms while correcting for radioactive decay, scatter, attenuation and detectors inhomogeneity, which were measured prior to PET scanning using respectively ^57Co and ^68Ge external sources.
PET image analysis was performed using PMOD software version 3.8 (PMOD Technologies Ltd., Zurich, Suisse). After individual co-registration of PET-MR images, a cynomolgus atlas published by Ballanger and coworkers was normalized to PET images to extract time activity curves in different brain regions. Volumes of interest (VOI) were cerebral white matter (16.7 cm^3), striatum (0.24 cm^3), thalamus (0.89 cm^3), cerebellum (3.83 cm^3), frontal—(2.50 cm^3), parietal—(5.35 cm^3), and temporal (8.22 cm^3) cortex, and whole brain (72.2 cm^3) as a composite region of all regions in the atlas. [^18F]UCB-H pharmacokinetics were evaluated by analyzing the time activity curves of the test- and retest scans using 1- and 2-tissue compartment models (unconstrained and constrained with global K1/k2 coupled fit across all regions, further referred to as 2TCM and 2TCM-c), and Logan graphical analysis with a fixed t* at 60 min [33] using the arterial plasma input function corrected for radio-metabolites to derive the volume of distribution in each region. Percentage standard error (%SE) was estimated from the theoretical parameter covariance matrix. Only reliable estimates (%SE less than 25%) were included in the current analyses. For the three drug studies, percent displacement of the total activity in the whole brain was estimated relative to an average baseline constructed from the two 4 h baseline studies. Briefly, Standardized Uptake Value (SUV) time activity curves (TACs) were calculated for the two baseline and the three displacement studies. Then, each curve was normalized to the SUV at t = 90 min, corresponding to the timeframe immediately before the administration of the drugs in the displacement studies. Baseline curves were averaged and the percent displacement of total activity was calculated as (baseline-displacement)/baseline at a given time post drug administration (see “Results”).
Statistical analysis was performed using R software (version 3.3.1.). Plasma, intact parent fraction and time activity curves were statistically compared between subjects using a one-factor variance analysis. Absolute Test–Retest variability (aTRV) of PET quantification parameters was calculated as ABS(test—retest) / AVERAGE(test, retest). […]

[1] = Cerebellum, Retest, individual NHP
[2] = Cerebellum, Test, individual NHP
[3] = Frontal Cortex, Retest, individual NHP
[4] = Frontal Cortex, Test, individual NHP

T1 sequence (Q4R4X3 whole entry): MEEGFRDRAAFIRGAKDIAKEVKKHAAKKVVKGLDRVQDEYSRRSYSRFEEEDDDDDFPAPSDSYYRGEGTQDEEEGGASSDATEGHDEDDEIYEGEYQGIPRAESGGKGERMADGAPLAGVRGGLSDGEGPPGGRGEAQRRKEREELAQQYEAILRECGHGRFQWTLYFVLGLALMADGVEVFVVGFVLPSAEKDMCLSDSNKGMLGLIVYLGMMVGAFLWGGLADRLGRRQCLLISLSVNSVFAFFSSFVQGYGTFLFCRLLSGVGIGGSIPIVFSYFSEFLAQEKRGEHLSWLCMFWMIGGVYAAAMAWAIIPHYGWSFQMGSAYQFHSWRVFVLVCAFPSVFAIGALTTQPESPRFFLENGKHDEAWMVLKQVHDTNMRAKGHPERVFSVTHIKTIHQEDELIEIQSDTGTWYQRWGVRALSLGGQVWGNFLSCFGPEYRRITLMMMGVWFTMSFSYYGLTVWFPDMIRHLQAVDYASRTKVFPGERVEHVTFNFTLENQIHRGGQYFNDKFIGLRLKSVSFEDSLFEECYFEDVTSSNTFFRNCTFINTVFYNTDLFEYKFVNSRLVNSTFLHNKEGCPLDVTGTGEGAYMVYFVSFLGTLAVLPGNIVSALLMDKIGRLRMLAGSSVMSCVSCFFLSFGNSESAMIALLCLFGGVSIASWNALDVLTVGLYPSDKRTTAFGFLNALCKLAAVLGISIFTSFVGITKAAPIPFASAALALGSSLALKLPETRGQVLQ

- aTRV of VT (1TCM): above 10%
- ICC of VT, overall (2TCM-c): ~ 0.4
- aTRV of VT, overall (2TCM-c): ~ 17%
- k3/k4 (surrogate of BPND), average (2TCM-c, average): 1.07 ± 0.02 and 1.1
- ICC of Logan (t* = 60) VT (Cerebellum): 0.32
- aTRV of Logan (t* = 60) VT (Cerebellum): 14%
- VT (2TCM) [1]: 12.28 ml/cm^3
- k3/k4 (2TCM-c) [1]: 1.64 and 0.80
- VT (1TCM) (Cerebellum, Retest, mean): 10.4 mL/cm^3
- VT (2TCM) (Cerebellum, Retest, mean): 12.3 mL/cm^3
- VT (2TCM-c) (Cerebellum, Retest, mean): 13.3 mL/cm^3
- VT (Logan (t* = 60)) (Cerebellum, Retest, mean): 11.1 mL/cm^3
- k3/k4 (BPND) (2TCM-c) (Cerebellum, Retest, mean): 1.22
- VT (2TCM) [2]: 10.64 ml/cm^3 and 10.48 ml/cm^3
- VT (2TCM-c) [2]: 9.72 ml/cm^3
- k3/k4 (2TCM) [2]: 0.87
- k3/k4 (2TCM-c) [2]: 1.24
- VT (1TCM) (Cerebellum, Test, mean): 9.8 mL/cm^3
- VT (2TCM) (Cerebellum, Test, mean): 10.6 mL/cm^3
- VT (2TCM-c) (Cerebellum, Test, mean): 9.70 mL/cm^3
- VT (Logan (t* = 60)) (Cerebellum, Test, mean): 11.2 mL/cm^3
- k3/k4 (BPND) (2TCM-c) (Cerebellum, Test, mean): 1.24
- K1/k2 (2TCM) [3]: 12.79 ml/cm^3 and 10.20 ml/cm^3
- k3/k4 (2TCM-c) [3]: 2.10 and 1.07 and 0.78
- VT (2TCM) [4]: 12.58 ml/cm^3 and 19.94 ml/cm^3
- k3/k4 (2TCM) [4]: 0.56
- k3/k4 (2TCM-c) [4]: 1.63 and 1.51 and 0.61
- ICC of 2TCM-c VT (Frontal cortex): 0.84
- ICC of Logan (t* = 60) VT (Frontal cortex): 0.89
- aTRV of 2TCM-c VT (Frontal cortex): 11%
- aTRV of Logan (t* = 60) VT (Frontal cortex): 11%
- VT (1TCM) (Frontal cortex, Retest, mean): 13.8 mL/cm^3
SMILES: O=C1C[C@H](c2cc(F)c(F)c(F)c2)CN1Cc1ccncc1[18F] [[^18F]UCB-H]
- K1 (2TCM) [1]: 0.62 ml/cm^3 /min and 0.26 ml/cm^3 /min and 0.34 ml/cm^3 /min and 0.36 ml/cm^3 /min
- K1 (2TCM-c) [1]: 0.58 ml/cm^3 /min and 0.24 ml/cm^3 /min and 0.34 ml/cm^3 /min and 0.36 ml/cm^3 /min
- K1/k2 (2TCM) [1]: 6.41 ml/cm^3 and 10.80 ml/cm^3 and 8.77 ml/cm^3
- K1/k2 (2TCM-c) [1]: 4.64 ml/cm^3 and 9.07 ml/cm^3 and 10.70 ml/cm^3 and 7.25 ml/cm^3
- VT (1TCM) [1]: 12.10 ml/cm^3 and 9.16 ml/cm^3 and 11.41 ml/cm^3 and 8.78 ml/cm^3
- VT (2TCM-c) [1]: 12.24 ml/cm^3 and 18.89 ml/cm^3 and 8.78 ml/cm^3
- VT (Logan) [1]: 12.38 ml/cm3 and 11.31 ml/cm3 and 11.82 ml/cm3 and 8.96 ml/cm3
- K1 (2TCM) [2]: 0.22 ml/cm^3 /min and 0.35 ml/cm^3 /min and 0.39 ml/cm^3 /min and 0.17 ml/cm^3 /min
- K1 (2TCM-c) [2]: 0.23 ml/cm^3 /min and 0.33 ml/cm^3 /min and 0.39 ml/cm^3 /min and 0.17 ml/cm^3 /min
- K1/k2 (2TCM) [2]: 5.68 ml/cm^3 and 6.39 ml/cm^3 and 10.81 ml/cm^3 and 6.69 ml/cm^3
- K1/k2 (2TCM-c) [2]: 4.35 ml/cm^3 and 8.22 ml/cm^3 and 10.99 ml/cm^3 and 7.86 ml/cm^3
- VT (1TCM) [2]: 8.70 ml/cm^3 and 9.24 ml/cm^3 and 12.07 ml/cm^3 and 9.02 ml/cm^3
- VT (Logan) [2]: 10.54 ml/cm3 and 10.32 ml/cm3 and 13.27 ml/cm3 and 10.85 ml/cm3
- K1 (2TCM) [3]: 0.45 ml/cm^3 /min and 0.42 ml/cm^3 /min and 0.31 ml/cm^3 /min and 0.37 ml/cm^3 /min
- K1 (2TCM-c) [3]: 0.48 ml/cm^3 /min and 0.45 ml/cm^3 /min and 0.31 ml/cm^3 /min and 0.37 ml/cm^3 /min
- K1/k2 (2TCM-c) [3]: 4.64 ml/cm^3 and 9.07 ml/cm^3 and 10.70 ml/cm^3 and 7.25 ml/cm^3
- VT (1TCM) [3]: 14.34 ml/cm^3 and 16.78 ml/cm^3 and 11.35 ml/cm^3 and 12.88 ml/cm^3
- VT (2TCM) [3]: 14.38 ml/cm^3 and 12.14 ml/cm^3 and 12.88 ml/cm^3
- VT (2TCM-c) [3]: 14.39 ml/cm^3 and 18.59 ml/cm^3 and 12.71 ml/cm^3 and 12.90 ml/cm^3
- VT (Logan) [3]: 14.05 ml/cm3 and 20.21 ml/cm3 and 11.72 ml/cm3 and 13.18 ml/cm3
- K1 (2TCM) [4]: 0.24 ml/cm^3 /min and 0.53 ml/cm^3 /min and 0.38 ml/cm^3 /min and 0.22 ml/cm^3 /min
- K1 (2TCM-c) [4]: 0.25 ml/cm^3 /min and 0.55 ml/cm^3 /min and 0.38 ml/cm^3 /min and 0.22 ml/cm^3 /min
- K1/k2 (2TCM) [4]: 8.05 ml/cm^3 and 13.17 ml/cm^3 and 10.76 ml/cm^3 and 11.87 ml/cm^3
- K1/k2 (2TCM-c) [4]: 4.35 ml/cm^3 and 8.22 ml/cm^3 and 10.99 ml/cm^3 and 7.86 ml/cm^3
- VT (1TCM) [4]: 10.97 ml/cm^3 and 18.41 ml/cm^3 and 12.04 ml/cm^3 and 13.68 ml/cm^3
- VT (2TCM-c) [4]: 11.41 ml/cm^3 and 18.77 ml/cm^3 and 14.10 ml/cm^3
- VT (Logan) [4]: 12.20 ml/cm3 and 19.36 ml/cm3 and 13.14 ml/cm3 and 15.28 ml/cm3
